Assay results: patent US20060069132A1, “Azolecarboxamide herbicides” (priority 2004, published 2006)

Key:
[1] = test system: wheat; experiment: Test B postemergence herbicide test; format: in vivo, Triticum aestivum; set-up: key to Wheat plant response rating: 0 = no effect, 100 = complete control; conditions: postemergence, visual rating, scale 0 (no effect) to 100 (complete control)
In short: (§1)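 Visual ratings, 0 (no effect) to 100 (complete control), made versus controls after 13–15 d greenhouse. Paddy plants treated at 2-leaf stage; postemergence plants at 1- to 4-leaf stage, 2–18 cm tall.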

[2] = test system: barnyardgrass; experiment: Test C flooded paddy test; format: in vivo, Echinochloa crus-galli
In short: (§2)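 Injury scored visually against controls on a 0 (no effect) to 100 (complete control) scale, 12 to 14 days after treatment in greenhouse. Flooded paddy plants treated at 2-leaf stage; postemergence plants at 1- to 4-leaf stage, 2 to 18 cm tall.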

[3] = test system: lambsquarters; experiment: Test B pre-/postemergence herbicide test; format: in vivo, Chenopodium album; conditions: for Lambsquarters plant response rating: postemergence, scale 0 (no effect) to 100 (complete control)
In short: (§3)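 Formulation: non-phytotoxic solvent mix with surfactant. Timing: preemergence on seed and postemergence on 2–18 cm plants, applied concurrently. Readout after 13–15 d greenhouse: visual 0–100 control rating against controls.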

[4] = test system: barnyardgrass; experiment: Test B flooded paddy test; format: in vivo, Echinochloa crus-galli; conditions: 1000 g ai/ha, visual rating, scale 0 to 100 (0 no effect, 100 complete control), 13 to 15 days
In short: (§4)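 Formulated test chemicals went onto postemergence plants measuring 2 to 18 cm, at one to four leaves. For the paddy assay, species had reached two leaves. Scoring took place 13–15 days later by eye, relative to untreated plants, using 0 for no effect up to 100 for full control.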

[5] = test system: wild oat; experiment: Test B postemergence herbicide test; format: in vivo, Avena fatua; conditions: postemergence, visual rating, scale 0 (no effect) to 100 (complete control)
In short: as §1

[6] = test system: corn; experiment: Test B pre-/postemergence herbicide test; format: in vivo, Zea mays; conditions: for Corn plant response rating: postemergence, scale 0 (no effect) to 100 (complete control)
In short: as §3

[7] = test system: morningglory; experiment: Test B pre-/postemergence herbicide test; format: in vivo, Ipomoea coccinea; conditions: for Morningglory plant response rating: postemergence, scale 0 (no effect) to 100 (complete control)
In short: (§5)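 Plants compared with untreated controls 13–15 days post-treatment and given a visual 0–100 injury score. Applications: preemergence to seeds; postemergence at 1- to 4-leaf (2–18 cm); paddy species flooded, 2-leaf stage. Vehicle non-phytotoxic, surfactant included.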

[8] = test system: rice; experiment: Test B pre-/postemergence herbicide test; format: in vivo, Oryza sativa; conditions: 0 = no effect, 100 = complete control, preemergence
In short: as §3

[9] = test system: giant foxtail; experiment: Test B pre-/postemergence herbicide test; format: in vivo, Setaria faberi; conditions: for Foxtail, Giant plant response rating: postemergence, scale 0 (no effect) to 100 (complete control)
In short: as §3

[10] = test system: blackgrass; experiment: Test B postemergence herbicide test; format: in vivo, Alopecurus myosuroides; conditions: postemergence, visual rating, scale 0 (no effect) to 100 (complete control)
In short: as §4

[11] = test system: large crabgrass; experiment: Test B pre-/postemergence herbicide test; format: in vivo, Digitaria sanguinalis; conditions: for Crabgrass, Large plant response rating: postemergence, scale 0 (no effect) to 100 (complete control)
In short: as §3

[12] = test system: rice; experiment: Test B flooded paddy test; format: in vivo, Oryza sativa; conditions: 1000 g ai/ha, visual rating, scale 0 to 100 (0 no effect, 100 complete control), 13 to 15 days
In short: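 Scale 0–100: zero equals no visible effect, 100 complete control, judged by eye relative to controls. Timing: 13 to 15 days in greenhouse post-treatment. Growth stage at spraying: two leaves (paddy) or one to four leaves, 2–18 cm (postemergence).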

[13] = test system: Surinam grass; experiment: Test B pre-/postemergence herbicide test; format: in vivo, Urochloa decumbens; conditions: for Surinam Grass plant response rating: postemergence, scale 0 (no effect) to 100 (complete control)
In short: as §3

[14] = test system: velvetleaf; experiment: Test B pre-/postemergence herbicide test; format: in vivo, Abutilon theophrasti; conditions: for Velvetleaf plant response rating: postemergence, scale 0 (no effect) to 100 (complete control)
In short: as §3

[15] = test system: cocklebur; experiment: Test B pre-/postemergence herbicide test; format: in vivo, Xanthium strumarium; conditions: for Cocklebur plant response rating: postemergence, scale 0 (no effect) to 100 (complete control)
In short: as §5

[16] = test system: ducksalad; experiment: Test B flooded paddy test; format: in vivo, Heteranthera limosa; conditions: 1000 g ai/ha, visual rating, scale 0 to 100 (0 no effect, 100 complete control), 13 to 15 days
In short: as §4

[17] = test system: ducksalad; experiment: Test C flooded paddy test; format: in vivo, Heteranthera limosa
[18] = test system: rice; experiment: Test C flooded paddy test; format: in vivo, Oryza sativa
In short: as §2

[19] = test system: smallflower umbrella sedge; experiment: Test C flooded paddy test; format: in vivo, Cyperus difformis
[20] = test system: barnyardgrass; experiment: Test B pre-/postemergence herbicide test; format: in vivo, Echinochloa crus-galli; conditions: 0 = no effect, 100 = complete control, preemergence
In short: as §5

[21] = test system: pigweed; experiment: Test B pre-/postemergence herbicide test; format: in vivo, Amaranthus retroflexus
In short: as §3

[22] = test system: small flower umbrella sedge; experiment: Test B flooded paddy test; format: in vivo, Cyperus difformis; conditions: 1000 g ai/ha, visual rating, scale 0 to 100 (0 no effect, 100 complete control), 13 to 15 days
In short: as §4

[23] = 62 g ai/ha, scale 0 to 100 (0 no effect, 100 complete control)
[24] = 125 g ai/ha, scale 0 to 100 (0 no effect, 100 complete control)
[25] = 250 g ai/ha, scale of 0 to 100, 0 is no effect, 100 is complete control
[26] = 500 g ai/ha, visual rating after 12 to 14 days, scale 0 to 100 (0 no effect, 100 complete control)
[27] = 125 g ai/ha, 0 = no effect, 100 = complete control, preemergence
[28] = 500 g ai/ha, visual rating, 0 = no effect, 100 = complete control, preemergence

CCN(C)C(=O)c1cccc(NC(=O)c2sc(C(C)(C)C)nc2C)c1 [Compound 227]
Wheat plant response rating ([1]; 125 g ai/ha): 0 | Wheat plant response rating ([1]; 500 g ai/ha): 10 | Barnyardgrass plant response rating [2, 23]: 0 | Barnyardgrass plant response rating [2, 24]: 0 | Barnyardgrass plant response rating [2, 25]: 0 | Plant response rating, Barnyardgrass [2, 26]: 0 | Lambsquarters plant response rating (0 to 100 scale) [3, 27]: 0 | Plant response rating, Lambsquarters [3, 28]: 90 | Lambsquarters plant response rating ([3]; 125 g ai/ha, visual rating): 50 | Lambsquarters plant response rating ([3]; 500 g ai/ha, visual rating): 70 | Barnyardgrass plant response rating [4]: 70 | Oat, Wild plant response rating ([5]; 125 g ai/ha): 0 | Oat, Wild plant response rating ([5]; 500 g ai/ha): 0 | Corn plant response rating (0 to 100 scale) [6, 27]: 0 | Plant response rating, Corn [6, 28]: 50 | Corn plant response rating ([6]; 125 g ai/ha, visual rating): 30 | Corn plant response rating ([6]; 500 g ai/ha, visual rating): 40 | Morningglory plant response rating (0 to 100 scale) [7, 27]: 0 | Plant response rating, Morningglory [7, 28]: 20 | Morningglory plant response rating ([7]; 125 g ai/ha, visual rating): 50 | Morningglory plant response rating ([7]; 500 g ai/ha, visual rating): 60 | Rice plant response rating (0 to 100 scale) ([8]; 125 g ai/ha): 10 | Plant response rating, Rice ([8]; 500 g ai/ha, visual rating): 70 | Foxtail, Giant plant response rating (0 to 100 scale) [9, 27]: 10 | Plant response rating, Foxtail, Giant [9, 28]: 70 | Foxtail, Giant plant response rating ([9]; 125 g ai/ha, visual rating): 10 | Foxtail, Giant plant response rating ([9]; 500 g ai/ha, visual rating): 60 | Blackgrass plant response rating ([10]; 125 g ai/ha): 20 | Blackgrass plant response rating ([10]; 500 g ai/ha): 30 | Crabgrass, Large plant response rating (0 to 100 scale) [11, 27]: 40 | Plant response rating, Crabgrass, Large [11, 28]: 100 | Crabgrass, Large plant response rating ([11]; 125 g ai/ha, visual rating): 30 | Crabgrass, Large plant response rating ([11]; 500 g ai/ha, visual rating): 30 | Rice plant response rating [12]: 70 | Surinam Grass plant response rating (0 to 100 scale) [13, 27]: 30 | Plant response rating, Surinam Grass [13, 28]: 70 | Surinam Grass plant response rating ([13]; 125 g ai/ha, visual rating): 10 | Surinam Grass plant response rating ([13]; 500 g ai/ha, visual rating): 30 | Velvetleaf plant response rating (0 to 100 scale) [14, 27]: 30 | Plant response rating, Velvetleaf [14, 28]: 100 | Velvetleaf plant response rating ([14]; 125 g ai/ha, visual rating): 20 | Velvetleaf plant response rating ([14]; 500 g ai/ha, visual rating): 70 | Cocklebur plant response rating (0 to 100 scale) [15, 27]: 0 | Plant response rating, Cocklebur [15, 28]: 0 | Cocklebur plant response rating ([15]; 125 g ai/ha, visual rating): 20 | Cocklebur plant response rating ([15]; 500 g ai/ha, visual rating): 30 | Ducksalad plant response rating [16]: 80 | Ducksalad plant response rating [17, 23]: 0 | Ducksalad plant response rating [17, 24]: 0 | Ducksalad plant response rating [17, 25]: 0 | Plant response rating, Ducksalad [17, 26]: 55 | Rice plant response rating [18, 23]: 0 | Rice plant response rating [18, 24]: 0 | Rice plant response rating [18, 25]: 25 | Plant response rating, Rice [18, 26]: 55 | Sedge, Umbrella plant response rating [19, 23]: 0 | Sedge, Umbrella plant response rating [19, 24]: 0 | Sedge, Umbrella plant response rating [19, 25]: 0 | Plant response rating, Sedge, Umbrella [19, 26]: 15 | Barnyardgrass plant response rating (0 to 100 scale) ([20]; 125 g ai/ha): 0 | Plant response rating, Barnyardgrass ([20]; 500 g ai/ha, visual rating): 60 | Pigweed plant response rating (0 to 100 scale) [21, 27]: 0 | Plant response rating, Pigweed [21, 28]: 100 | Pigweed plant response rating ([21]; postemergence, 125 g ai/ha, visual rating, scale 0 (no effect) to 100 (complete control)): 20 | Sedge, Umbrella plant response rating [22]: 50
